According to patent US9839642B2, “Beta-tetrazolyl-propionic acids as metallo-beta-lactamase inhibitors” (priority 2014, dated 2017):
Where two headings read alike, the source gives them in different places.

Experiments:
[1] = target: IMP-1 (Serratia marcescens, UniProt P52699); test: Enzyme activity: determination of IC50, fluorescence assay with CCF2-FA substrate; type: biochemical; conditions: IMP-1 enzyme 2 pM, CCF2-FA 1.25 μM, 2 hours at 25° C.; read-out: IMP1 IC50
Summary of the method: (§1)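 Enzyme (1 pM NDM-1, 2 pM IMP-1, 30 pM VIM-1) incubated with inhibitor (20 to 0.00063 μM) and 1.25 μM CCF2-FA in 100 mM KH2PO4 pH 7, 0.005% Tween-20, 10 μM ZnSO4, 2 h at 25 °C. Fluorescence read at 460 nm (ex 405 nm); IC50 by 4-parameter fit.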

[2] = target: NDM-1 (Klebsiella pneumoniae, UniProt C7C422); test: as above; type: biochemical; conditions: CCF2-FA 1.25 μM, 2 hours at 25° C.
NDM-1, sequence (C7C422 29-270, looked up, species assumed): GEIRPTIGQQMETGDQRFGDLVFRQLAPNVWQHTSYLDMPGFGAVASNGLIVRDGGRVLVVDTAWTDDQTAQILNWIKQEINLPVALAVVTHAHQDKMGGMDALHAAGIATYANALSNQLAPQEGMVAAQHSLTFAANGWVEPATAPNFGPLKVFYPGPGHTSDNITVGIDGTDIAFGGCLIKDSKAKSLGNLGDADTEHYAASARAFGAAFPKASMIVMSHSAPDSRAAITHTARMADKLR
Summary of the method: as §1

[3] = target: VIM-1 (Pseudomonas aeruginosa, UniProt A0A0F7KYQ8); test: as above; type: biochemical; conditions: VIM-1 enzyme 30 pM, CCF2-FA 1.25 μM, 2 hours at 25° C.; read-out: VIM1 IC50
Summary of the method: as §1

[4] = test system: Escherichia coli expressing NDM-1 (CLB30016); test: Antibiotic potentiation activity: synergistic concentration (MITC95) with imipenem, growth by OD600; type: cell-based; conditions: E. coli CLB30016 (NDM-1), 95% inhibition of growth
Summary of the method: (§2)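 Strains grown overnight at 35° C, resuspended in saline, diluted 1:100 into 1.1×CAMHB; imipenem at 1 μg/ml or 4 μg/ml with test compound 200 μM to 0.195 μM. Incubated 22 hours to 24 hours at 35° C, OD600 read; MITC95 is lowest compound concentration inhibiting 95% of growth.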

[5] = test system: Klebsiella pneumoniae expressing VIM-1 (IHMA599644); test: as above; type: cell-based; conditions: K. pneumoniae IHMA599644 (VIM-1), 95% inhibition of growth
Summary of the method: as §2

[6] = test system: Serratia marcescens expressing IMP-1 (CL5741); test: as above; type: cell-based; conditions: S. marcescens CL5741 (IMP-1), 95% inhibition of growth
Summary of the method: as §2

[7] = NDM-1 enzyme 1 pM, read-out: NDM1 IC50

IMP-1, sequence (P52699 19-246, looked up, species assumed): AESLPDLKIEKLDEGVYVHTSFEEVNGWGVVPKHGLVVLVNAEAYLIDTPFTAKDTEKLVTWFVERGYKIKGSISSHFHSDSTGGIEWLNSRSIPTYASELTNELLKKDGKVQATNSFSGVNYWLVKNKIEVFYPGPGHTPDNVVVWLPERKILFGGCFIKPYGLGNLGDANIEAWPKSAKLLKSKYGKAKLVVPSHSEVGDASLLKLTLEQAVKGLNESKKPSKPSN

| Compound | IC50 [1] | IC50 ([2]; NDM1 IC50, NDM-1 enzyme 1 pM) | IC50 [3] | NDM1 EC30016 MITC95 [4] | VIM1 KP599644 MITC95 [5] | IMP1 SM5741 MITC95 [6] | IC50 [2, 7] |
| --- | --- | --- | --- | --- | --- | --- | --- |
| CCC[C@H](C(=O)O)[C@H](Cc1cnc(N2CCNCC2)nc1)c1nnn[nH]1 [Example 288, (S)-2-((S)-2-(2-(piperazin-1-yl)pyrimidin-5-yl)-1-(1H-tetrazol-5-yl)ethyl)pentanoic acid] | > 20000 nM | 520 nM | 4.1 nM | 12.5 µM | 12.5 µM | 150 µM | – |
| CCC[C@H](C(=O)O)[C@H](Cc1cnc(OC2CCNCC2)nc1)c1nnn[nH]1 [Example 289, (S)-2-((S)-2-(2-(piperidin-4-yloxy)pyrimidin-5-yl)-1-(1H-tetrazol-5-yl)ethyl)pentanoic acid] | > 20000 nM | – | 6.8 nM | 25 µM | 38 µM | >200 µM | 3100 nM |
| CCC[C@H](C(=O)O)[C@H](Cc1cnc(N(C)C)nc1)c1nnn[nH]1 [Example 290, (S)-2-((S)-2-(2-(dimethylamino)pyrimidin-5-yl)-1-(1H-tetrazol-5-yl)ethyl)pentanoic acid] | 14000 nM | – | 2.1 nM | 18.8 µM | 38 µM | 150 µM | 110 nM |
| CCC[C@H](C(=O)[O-])[C@H](Cc1ccc(C2CC[N+](C)(C)CC2)nc1)c1nnn[nH]1 [Example 291, (S)-2-((S)-2-(6-(1,1-dimethylpiperidin-1-ium-4-yl)pyridin-3-yl)-1-(1H-tetrazol-5-yl)ethyl)pentanoate] | 6500 nM | – | 120 nM | 3.1 µM | 38 µM | 50 µM | 650 nM |
| CCC[C@H](C(=O)[O-])[C@H](Cc1ccc(C2CCC[N+](C)(C)C2)nc1)c1nnn[nH]1 (stereo partly drawn) [Example 292, (2S)-2-((1S)-2-(6-(1,1-dimethylpiperidin-1-ium-3-yl)pyridin-3-yl)-1-(1H-tetrazol-5-yl)ethyl)pentanoate] | 16000 nM | – | 78 nM | 38 µM | 50 µM | 150 µM | 2600 nM |
| CCC[C@H](C(=O)[O-])[C@H](Cc1ccc(C2=CCC[N+](C)(C)C2)nc1)c1nnn[nH]1 [Example 293, (S)-2-((S)-2-(1′,1′-dimethyl-1′,2′,5′,6′-tetrahydro-[2,3′-bipyridin]-1′-ium-5-yl)-1-(1H-tetrazol-5-yl)ethyl)pentanoate] | 16000 nM | – | 22 nM | 25 µM | 50 µM | 100 µM | 2400 nM |
| CCC[C@H](C(=O)[O-])[C@H](Cc1ccc(C2CC[N+](C)(C)CC2)cc1)c1nnn[nH]1 [Example 294, (S)-2-((S)-2-(4-(1,1-dimethylpiperidin-1-ium-4-yl)phenyl)-1-(1H-tetrazol-5-yl)ethyl)pentanoate] | 690 nM | – | 76 nM | 12.5 µM | 25 µM | 9.4 µM | 170 nM |
| CCC[C@H](C(=O)[O-])[C@H](Cc1ccc(C2=CC[N+](C)(C)CC2)cc1)c1nnn[nH]1 [Example 295, (S)-2-((S)-2-(4-(1,1-dimethyl-1,2,3,6-tetrahydropyridin-1-ium-4-yl)phenyl)-1-(1H-tetrazol-5-yl)ethyl)pentanoate] | 1100 nM | – | 1600 nM | 12.5 µM | 25 µM | 12.5 µM | 440 nM |
| CCC[C@H](C(=O)O)[C@H](Cc1ccc(C2CCN(C(=N)N)CC2)cc1)c1nnn[nH]1 [Example 296, (S)-2-((S)-2-(4-(1-carbamimidoylpiperidin-4-yl)phenyl)-1-(1H-tetrazol-5-yl)ethyl)pentanoic acid] | 180 nM | – | 21 nM | 4.7 µM | 12.5 µM | 6.2 µM | 32 nM |
| CCC[C@H](C(=O)O)[C@H](Cc1ccc(C2CCN(C=N)CC2)cc1)c1nnn[nH]1 [Example 297, (S)-2-((S)-2-(4-(1-(iminomethyl)piperidin-4-yl)phenyl)-1-(1H-tetrazol-5-yl)ethyl)pentanoic acid] | 200 nM | – | 25 nM | 4.7 µM | 18.8 µM | 6.2 µM | 26 nM |
| CCC[C@H](C(=O)O)[C@H](Cc1ccc(C2CCN(C(=N)N)CC2)nc1)c1nnn[nH]1 [Example 298, (S)-2-((S)-2-(6-(1-carbamimidoylpiperidin-4-yl)pyridin-3-yl)-1-(1H-tetrazol-5-yl)ethyl)pentanoic acid] | 2700 nM | – | 10 nM | 1.6 µM | 12.5 µM | 25 µM | 110 nM |
| CCC[C@H](C(=O)O)[C@H](Cc1ccc(C2CCN(C=N)CC2)nc1)c1nnn[nH]1 [Example 299, (S)-2-((S)-2-(6-(1-(iminomethyl)piperidin-4-yl)pyridin-3-yl)-1-(1H-tetrazol-5-yl)ethyl)pentanoic acid] | 4400 nM | – | 22 nM | 1.6 µM | 25 µM | 50 µM | 220 nM |
| CCC[C@H](C(=O)O)[C@H](Cc1ccc(C2CCN(C)CC2)cc1)c1nn[nH]n1 [Example 300, (2S)-2-[(1S)-2-[4-(1-methylpiperidin-4-yl)phenyl]-1-(2H-tetrazol-5-yl)ethyl]pentanoic acid] | 2100 nM | – | 140 nM | 50 µM | 100 µM | 25 µM | 550 nM |
| CCC[C@H](C(=O)O)[C@H](Cc1ccc(-c2ccc(CC3CCNCC3)cc2)cc1)c1nn[nH]n1 [Example 301, (2S)-2-[(1S)-2-[4′-(piperidin-4-ylmethyl)biphenyl-4-yl]-1-(2H-tetrazol-5-yl)ethyl]pentanoic acid] | 68 nM | – | 31 nM | 12.5 µM | 100 µM | 2.3 µM | 43 nM |
| CCC[C@H](C(=O)O)[C@H](Cc1ccc(C2=CCCNC2)cc1)c1nn[nH]n1 [Example 302, (2S)-2-[(1S)-2-[4-(1,2,5,6-tetrahydropyridin-3-yl)phenyl]-1-(2H-tetrazol-5-yl)ethyl]pentanoic acid] | 3100 nM | – | 18 nM | 38 µM | 50 µM | 50 µM | 980 nM |
| CC(C)C[C@H](C(=O)O)[C@H](Cc1ccc(N2CCCC2c2ccccc2)nc1)c1nnn[nH]1 (stereo partly drawn) [Example 303, (2S)-4-methyl-2-[(1S)-2-[6-(2-phenylpyrrolidin-1-yl)pyridin-3-yl]-1-(1H-tetrazol-5-yl)ethyl]pentanoic acid] | 96 nM | – | 3.9 nM | 18.8 µM | 200 µM | 4.7 µM | 14 nM |
| CC(C)C[C@H](C(=O)O)[C@H](Cc1ccc(N2CCCC2)nc1)c1nnn[nH]1 [Example 304, (2S)-4-methyl-2-[(1S)-2-(6-pyrrolidin-1-ylpyridin-3-yl)-1-(1H-tetrazol-5-yl)ethyl]pentanoic acid] | 1300 nM | – | 7.8 nM | 4.7 µM | 18.8 µM | 38 µM | 170 nM |
| CNC(=O)C1CCN(c2ccc(C[C@H](c3nnn[nH]3)[C@H](CC(C)C)C(=O)O)cn2)C1 (stereo partly drawn) [Example 305, (2S)-4-methyl-2-[(1S)-2-{6-[3-(methylcarbamoyl)pyrrolidin-1-yl]pyridin-3-yl}-1-(1H-tetrazol-5-yl)ethyl]pentanoic acid] | 250 nM | – | 12 nM | 2.3 µM | 25 µM | 6.2 µM | 120 nM |
| CC(C)C[C@H](C(=O)O)[C@H](Cc1ccc(N2CCC(CN)C2)nc1)c1nnn[nH]1 (stereo partly drawn) [Example 306, (2S)-2-[(1S)-2-{6-[3-(aminomethyl)pyrrolidin-1-yl]pyridin-3-yl}-1-(1H-tetrazol-5-yl)ethyl]-4-methylpentanoic acid] | 2700 nM | – | 13 nM | 3.1 µM | 12.5 µM | 25 µM | 670 nM |
